Results reported in US20130123355A1, “Fatty acids and metal ions compositions and uses thereof” (priority 2011, published 2013).

Experiments:
rats = experiment: T-maze test (forced alternation or left-right discrimination task); assay type: in vivo; settings: diet
Procedure: Mg-DHA composition is provided as supplement in standard rat feed. On an average, rats consume about 50 mg/Kg/day of elemental Mg, on a feeding schedule so as to maintain 85% of its free-feeding weight. In the control group, rats are fed either DHA or magnesium citrate (Mg Citrate) supplemented diet on schedule similar to test group. After habituation to the apparatus and pre-training, each rat undergoes 4 trials of standard T-maze test (Shoji et al, J. Vis. Exp. (60), e3300, DOI: 10.3791/3300 (2012)) on day 1 or day 21 of Mg-DHA, Mg Citrate, or DHA feeding. Rats are subject to either forced alternation task or left-right discrimination task. Behaviors in the T-maze apparatus is recorded and statistically analyzed by two way repeated measures analysis of variance. […] In another set of experiments, rats fed with DHA, Mg Citrate, or Mg-DHA for 21 days are subject to novel-object-location (NOL) tests.
Mg-DHA composition is provided as supplement in standard rat feed. On an average, rats consume about 50 mg/Kg/day of elemental Mg, on a feeding schedule so as to maintain 85% of its free-feeding weight. In the control group, rats are fed DHA-LysoPC or Mg Citrate supplemented diet on schedule similar to test group. After habituation to the apparatus and pre-training, each rat undergoes 4 trials of standard T-maze test (Shoji et al, J. Vis. Exp. (60), e3300, DOI: 10.3791/3300 (2012)) on day 1 or day 21 of Mg-DHA-LysoPC, Mg Citrate or DHA-LysoPC feeding. Rats are subjected to either forced alternation task or left-right discrimination task. Behaviors in the T-maze apparatus is recorded and statistically analyzed by two way repeated measures analysis of variance. […] In another set of experiments, rats fed with Mg Citrate, DHA-LysoPC, or Mg-DHA-LysoPC for 21 days are subjected to novel-object-location (NOL) tests.
Mg-EPA composition is provided as supplement in standard rat feed. On an average, rats consume about 50 mg/Kg/day of elemental Mg, on a feeding schedule so as to maintain 85% of its free-feeding weight. In the control group, rats are fed EPA or Mg Citrate supplemented diet on scheduled similar to test group. After habituation to the apparatus and pre-training, each rat undergoes 4 trials of standard T-maze test (Shoji et al, J. Vis. Exp. (60), e3300, DOI: 10.3791/3300 (2012)) on day 1 or day 21 of Mg-EPA, Mg Citrate, or EPA feeding. Rats are subjected to either forced alternation task or left-right discrimination task. Behaviors in the T-maze apparatus is recorded and statistically analyzed by two way repeated measures analysis of variance. […]
Zn-DHA composition is provided as supplement in standard rat feed. […] Behaviors in the T-maze apparatus is recorded and statistically analyzed by two way repeated measures analysis of variance. […]

human subjects = experiment: Montreal Cognitive Assessment and Mini-Mental State Examination; assay type: in vivo
Procedure: (§1) Mg-DHA composition is prepared and formulated as capsules to provide a daily dose of 150 mg of elemental magnesium. The human subjects are divided into control and test groups and provided DHA, Mg Citrate (equivalent to 150 mg of elemental magnesium) or Mg-DHA capsules for 30 consecutive days. On day 1 and day 30, two cognitive tests, Montreal Cognitive Assessment and Mini-Mental State Examination (Int J Geriatr Psychiatry. 2010 February; 25(2):111-20) are administered.
as §1, with “Mg-DHA-LysoPC” for “Mg-DHA”, “either DHA-LysoPC,” for “DHA,”, “magnesium), Mg-DHA-LysoPC” for “magnesium) or Mg-DHA”
Mg-EPA composition is prepared and formulated as capsules to provide a daily dose of 150 mg of elemental magnesium. The human subjects are divided into control and test groups and provided EPA, Mg Citrate (equivalent to 150 mg elemental magnesium), or Mg-EPA capsules for 30 consecutive days. On day 1 and day 30, two cognitive tests, Montreal Cognitive Assessment and Mini-Mental State Examination (Int J Geriatr Psychiatry. 2010 February; 25(2):111-20) are administered.
as §1, with “Zn-DHA or zinc gluconate” for “Mg-DHA”, “30” for “a daily dose of 150”, “zinc.” for “magnesium.”, “zinc gluconate,” for “Mg Citrate (equivalent to 150 mg of elemental magnesium)”, “Zn-DHA capsules, 3 times a day” for “Mg-DHA capsules”
(§2) Zn-DHA or zinc gluconate composition is prepared and formulated as capsules to provide 30 mg of elemental zinc. The human subjects are divided into control and test groups and provided DHA-LysoPC, zinc gluconate, or Zn-DHA-LysoPC capsules, 3 times a day for 30 consecutive days. On day 1 and day 30, two cognitive tests, Montreal Cognitive Assessment and Mini-Mental State Examination (Int J Geriatr Psychiatry. 2010 February; 25(2):111-20) are administered.
as §2, with “provide a daily dosage of” for “provide”, “provided EPA,” for “provided DHA-LysoPC,”, “or Zn-EPA capsules” for “or Zn-DHA-LysoPC capsules, 3 times a day”

[1] = about 50 mg/Kg/day elemental Mg, day 1 or day 21, compared with the fatty acid alone or Mg Citrate
[2] = capsules, 150 mg elemental magnesium daily for 30 days, compared with the fatty acid alone or Mg Citrate
[3] = about 1 mg/kg body weight/day elemental Zn, day 1 or day 21, compared with the fatty acid alone or zinc gluconate
[4] = capsules providing 30 mg elemental zinc, 30 consecutive days, compared with the fatty acid alone or zinc gluconate

## CC/C=C\C/C=C\C/C=C\C/C=C\C/C=C\C/C=C\CCC(=O)[O-].CC/C=C\C/C=C\C/C=C\C/C=C\C/C=C\C/C=C\CCC(=O)[O-].[Mg+2] [Mg-DHA]
rats; [1]
  working and reference memory: statistically significant increase
Human subjects; [2]
  cognitive tests (Montreal Cognitive Assessment, Mini-Mental State Examination): statistically significant improvement

## CC/C=C\C/C=C\C/C=C\C/C=C\C/C=C\C/C=C\CCC(=O)[O-].CC/C=C\C/C=C\C/C=C\C/C=C\C/C=C\C/C=C\CCC(=O)[O-].[Zn+2] [Zn-DHA]
rats; [3]
  working and reference memory: statistically significant increase
Human subjects; [4]
  cognitive tests (Montreal Cognitive Assessment, Mini-Mental State Examination): statistically significant improvement

## CC/C=C\C/C=C\C/C=C\C/C=C\C/C=C\CCCC(=O)[O-].CC/C=C\C/C=C\C/C=C\C/C=C\C/C=C\CCCC(=O)[O-].[Zn+2] [Zn-EPA]
rats; [3]
  working and reference memory: statistically significant increase
Human subjects; [4]
  cognitive tests (Montreal Cognitive Assessment, Mini-Mental State Examination): statistically significant improvement

## CC/C=C\C/C=C\C/C=C\C/C=C\C/C=C\CCCC(=O)[O-].CC/C=C\C/C=C\C/C=C\C/C=C\C/C=C\CCCC(=O)[O-].[Mg+2] [Mg-EPA]
rats; [1]
  working and reference memory: statistically significant increase
Human subjects; [2]
  cognitive tests (Montreal Cognitive Assessment, Mini-Mental State Examination): statistically significant improvement
